# From the supplement of paper PMC10307832
# Columns and labels:
# Assay in all cases: relative viability (nuclei count vs DMSO), 5 days (fraction); higher = more cells survive
# Shikonin + AZD7762 = compound: CC(C)=CC[C@@H](O)C1=CC(=O)c2c(O)ccc(O)c2C1=O [Shikonin] + NC(=O)Nc1cc(-c2cccc(F)c2)sc1C(=O)N[C@H]1CCCNC1 [AZD7762] (partner 0.2 µM)
# How it was run: (§1)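 The day after seeding in 1536-well plates, lung cancer cell lines were treated by pin tool with a single drug, or with a fixed anchor-drug dose together with five library-drug doses (not always all listed) in √10 steps. After 5 days, a combined fix-and-stain solution (final 0.05% Triton X-100, 1% formaldehyde, 1 ug/ml Hoechst) was added. Nuclei counted on 4× images gave relative viability as treated counts over vehicle counts, reported as the median of duplicate plates.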
# Shikonin + Tozasertib = compound: CC(C)=CC[C@@H](O)C1=CC(=O)c2c(O)ccc(O)c2C1=O [Shikonin] + Cc1cc(Nc2cc(N3CCN(C)CC3)nc(Sc3ccc(NC(=O)C4CC4)cc3)n2)n[nH]1 [Tozasertib] (partner 0.1 µM)
# How it was run: as §1
# Shikonin + Pemetrexed = compound: CC(C)=CC[C@@H](O)C1=CC(=O)c2c(O)ccc(O)c2C1=O [Shikonin] + Nc1nc2[nH]cc(CCc3ccc(C(=O)N[C@@H](CCC(=O)O)C(=O)O)cc3)c2c(=O)[nH]1 [Pemetrexed] (partner 0.2 µM)
# How it was run: as §1
# [1] = compound: CC(C)N(CCCNC(=O)Nc1ccc(C(C)(C)C)cc1)C[C@H]1O[C@@H](n2ccc3c(N)ncnc32)[C@H](O)[C@@H]1O + N=C(N)NC(=N)NCCc1ccccc1 [Phenformin] (partner 250 µM)
# How it was run: as §1
Cell Line,relative viability (Shikonin + AZD7762; first compound 0.01 µM),relative viability (Shikonin + AZD7762; first compound 0.1 µM),relative viability (Shikonin + AZD7762; first compound 0.3162 µM),relative viability (Shikonin + AZD7762; first compound 1 µM),relative viability (Shikonin + Tozasertib; first compound 0.01 µM),relative viability (Shikonin + Tozasertib; first compound 0.1 µM),relative viability (Shikonin + Tozasertib; first compound 0.3162 µM),relative viability (Shikonin + Tozasertib; first compound 1 µM),relative viability (Shikonin + Pemetrexed; first compound 0.01 µM),relative viability (Shikonin + Pemetrexed; first compound 0.1 µM),relative viability (Shikonin + Pemetrexed; first compound 0.3162 µM),relative viability (Shikonin + Pemetrexed; first compound 1 µM),relative viability ([1]; first compound 0.08 µM),relative viability ([1]; first compound 0.253 µM),relative viability ([1]; first compound 0.8 µM),relative viability ([1]; first compound 2.53 µM),relative viability ([1]; first compound 8 µM)
201T,0.638,0.657,0.625,0.603,0.99,1.14,0.968,0.935,0.346,0.382,0.368,0.307,0.474,0.421,0.43,0.421,0.401
A549,,,,,,,,,,,,,0.183,0.142,0.164,0.152,0.105
A-427,0.771,0.78,0.694,0.75,0.198,0.192,0.159,0.225,1.02,1.04,1.01,1.24,0.368,0.303,0.335,0.364,0.315
ABC-1,,1.13,0.644,0.741,0.141,0.196,0.188,0.187,,,,,0.235,0.246,,0.266,0.233
BEN,0.744,0.807,0.718,0.694,0.508,0.507,0.51,0.52,0.765,0.856,0.78,0.87,0.254,0.258,0.265,0.246,0.287
CAL-12T,0.606,0.751,0.622,0.736,0.322,0.294,0.325,0.432,1.28,1.41,1.09,1.24,0.539,0.597,0.585,0.56,0.489
COR-L23,,,,,0.202,0.197,0.171,0.149,0.188,0.19,0.208,0.206,0.467,0.418,0.434,0.426,0.418
COR-L 105,,,,,0.254,0.318,0.327,0.366,1.1,1.09,1.05,1.02,0.393,0.503,0.583,0.394,0.473
ChaGo-K-1,0.942,0.906,0.913,0.876,0.212,0.232,0.236,0.248,0.266,0.279,0.266,0.258,0.494,0.47,0.427,0.458,0.46
EKVX,0.744,0.698,0.851,0.703,0.387,0.327,0.402,0.414,0.438,0.435,0.472,0.362,0.229,0.241,0.223,0.228,0.202
EMC-BAC-2,1.15,1.32,1.21,1.16,0.279,0.283,0.323,0.267,0.44,0.503,0.453,0.422,0.564,0.581,0.565,0.543,0.449
EPLC-272H,0.194,0.265,0.241,0.176,0.226,0.215,0.249,0.191,0.264,0.314,0.334,0.297,0.286,0.271,0.32,0.296,0.298
H3255,0.909,0.977,0.943,0.911,0.804,0.535,0.64,0.797,0.592,0.563,0.605,0.577,0.375,0.365,0.371,0.416,0.372
HARA,0.259,0.348,0.271,0.368,0.0977,0.0981,0.115,0.113,0.265,0.306,0.255,0.24,0.458,0.413,0.388,0.425,0.363
HCC-15,1.33,1.18,1.34,1.24,0.459,0.445,0.33,0.465,0.228,0.225,0.233,0.213,0.466,0.483,0.431,0.423,0.407
HCC-44,1.03,1.01,1.05,1.04,0.901,0.732,1.19,0.937,0.652,0.678,0.667,0.637,0.142,0.155,0.232,0.219,0.125
HCC-78,0.647,0.74,0.534,0.694,0.465,0.433,0.402,0.372,0.91,0.844,0.941,0.893,0.804,0.611,0.682,0.641,0.717
HCC-366,0.281,0.25,0.308,0.269,0.118,0.103,0.166,0.114,0.172,0.185,0.161,0.15,0.625,0.627,0.754,0.588,0.53
HCC-827,0.203,0.216,0.2,0.197,0.452,0.456,0.432,0.453,0.23,0.283,0.234,0.259,0.393,0.383,,0.417,0.417
HOP-62,0.949,0.648,0.584,0.646,0.369,0.407,0.369,0.38,0.432,0.353,0.349,0.278,0.704,0.69,0.638,0.566,0.545
